Source: US12728119B2, “Pharmaceutical composition for preventing or treating cancer comprising 3-ketoacyl CoA thiolase inhibitor and carnitine acylcarnitine carrier inhibitor” (NATIONAL CANCER CENTER, priority 2020, dated 2026)

Tested on: MIA PaCa-2 cells
Assay: Xenograft tumor model
Type: in vivo, Balb/c-nu mice
Procedure: MIA PaCa-2 cells (1×10 7) in 100 μl PBS were subcutaneously inoculated into 6-8 weeks old Balb/c-nu mice (Orient, Seoul, Korea) using a 1 ml syringe. After one week, the mice were divided into three groups: a control group (solvent treatment), a KN713 40 mg/kg/100 μl treatment group, and a KN713 80 mg/kg/200 μl treatment group. KN713 was administered intraperitoneally once a day (for 49 days, 6 days/week, n=7). The primary tumor size was measured weekly using a caliper, and the tumor volume was calculated using the formula V=(A×B^2)/2 (V=volume (mm^3), A=long diameter, B=short diameter). This experiment was reviewed and approved by the Institutional Animal Care and Use Committee (IACUC) of the National Cancer Center Research Institute, which was established by the International Association for Accreditation of Laboratory Animals (It was accredited by AAALAC International).

COc1ccc(CN2CCNCC2)c(OC)c1OC [KN713, trimetazidine]
tumor size (tumor volume) (KN713 40 mg/kg intraperitoneally once a day, column 3 (measured weekly), Control 148.59): 147.09 mm^3
tumor size (tumor volume) (KN713 40 mg/kg intraperitoneally once a day, column 4 (measured weekly), Control 448.52): 319.40 mm^3
tumor size (tumor volume) (KN713 40 mg/kg intraperitoneally once a day, column 5 (measured weekly), Control 748.89): 499.29 mm^3
tumor size (tumor volume) (KN713 40 mg/kg intraperitoneally once a day, column 6 (measured weekly), Control 944.41): 593.57 mm^3
tumor size (tumor volume) (KN713 40 mg/kg intraperitoneally once a day, column 7 (measured weekly), Control 1472.13): 790.38 mm^3
tumor size (tumor volume) (KN713 40 mg/kg intraperitoneally once a day, column 8 (measured weekly), Control 1709.54): 965.18 mm^3
tumor size (tumor volume) (KN713 80 mg/kg intraperitoneally once a day, column 3 (measured weekly), Control 148.59): 147.36 mm^3
tumor size (tumor volume) (KN713 80 mg/kg intraperitoneally once a day, column 4 (measured weekly), Control 448.52): 279.36 mm^3
tumor size (tumor volume) (KN713 80 mg/kg intraperitoneally once a day, column 5 (measured weekly), Control 748.89): 372.00 mm^3
tumor size (tumor volume) (KN713 80 mg/kg intraperitoneally once a day, column 6 (measured weekly), Control 944.41): 420.82 mm^3
tumor size (tumor volume) (KN713 80 mg/kg intraperitoneally once a day, column 7 (measured weekly), Control 1472.13): 589.49 mm^3
tumor size (tumor volume) (KN713 80 mg/kg intraperitoneally once a day, column 8 (measured weekly), Control 1709.54): 555.42 mm^3
tumor size (mouse model transplanted with MIA PaCa2, result in words): significantly suppressed
